In US20040063663A1, “Acylated cyclodextrin: guest molecule inclusion complexes” (priority 2000, published 2004):

Assay: Thermal stability of triacetyl-β-CD (TGA)
Assay type: physicochemical
Procedure: In order to determine the stability of triacetyl-β-CD, a sample was heated to 400° C. at 20° C./min under nitrogen in a DuPont 2200 thermogravimetric spectrometer (FIG. 7). […] A sample of triacetyl-β-CD was then held at 300° C. for 35 minutes (FIG. 8). Even after extended heating at this temperature, only about 3.2% weight loss was observed.

CC(=O)OC[C@H]1O[C@@H]2O[C@H]3[C@H](OC(C)=O)[C@@H](OC(C)=O)[C@@H](O[C@H]4[C@H](OC(C)=O)[C@@H](OC(C)=O)[C@@H](O[C@H]5[C@H](OC(C)=O)[C@@H](OC(C)=O)[C@@H](O[C@H]6[C@H](OC(C)=O)[C@@H](OC(C)=O)[C@@H](O[C@H]7[C@H](OC(C)=O)[C@@H](OC(C)=O)[C@@H](O[C@H]8[C@H](OC(C)=O)[C@@H](OC(C)=O)[C@@H](O[C@H]1[C@H](OC(C)=O)[C@H]2OC(C)=O)O[C@@H]8COC(C)=O)O[C@@H]7COC(C)=O)O[C@@H]6COC(C)=O)O[C@@H]5COC(C)=O)O[C@@H]4COC(C)=O)O[C@@H]3COC(C)=O [triacetyl-β-CD, heptakis(2,3,6-tri-O-acetyl)-β-cyclodextrin]
Temperature until which 10% weight loss is not observed (TGA, FIG. 7): 372 °C
Weight loss observed until above 325° C. (heated to 400° C. at 20° C./min under nitrogen): ca. 0.2%
Weight loss (held at 300° C. for 35 minutes): about 3.2%
